Like-named read-outs stand apart in the source and are kept apart here.
Experiments:
nitrification [1] = test: Soil incubation trial: recovery of applied urea N as ammonium; conditions: for percentage recovery in the form of ammonium, % of applied urea (13 mg N): 28 days after application, Filder loam pH 6.8, 20° C., 200 kg urea N/ha, label gives UI/NI fraction of recommended rate (0.6 g NBPT, 3.6 g DMPSA per kg urea)
Procedure: % of applied urea (13 mg N)
A determination was carried out 28 days after application of the urea, with the percentage recovery in the form of ammonium being reported.

nitrification [2] = test: Soil incubation trial: nitrate formed from applied urea N; conditions: for Nitrate, % of the urea applied (13 mg N): Filder loam, 20° C., label gives UI/NI fraction of recommended rate
Procedure: % of the urea applied (13 mg N)

nitrification [3] = test: Soil incubation trial: cumulative laughing gas (N2O-N) emission; conditions: for N2O—N cumulative / N2O—N cumulative, % of appl.: 77 mg N applied; for N2O—N cumulative, % of appl.: cumulative over 28 days
urease = conditions: for Ammonia emission, % of the urea applied (77 mg N): Filder loam, 20° C., label gives UI/NI fraction of recommended rate
Procedure: Screening trials were conducted to evaluate the effect of DMPSA and NBPT in the inhibition of urease and inhibition of nitrification, and to find suitable quantities for use. Serving for this purpose was a two-factorial trial design including an unfertilized control sample. For the urease inhibitor NBPT and for the nitrification inhibitor DMPSA, in each case 0%, 33%, 66% and 100% of the application rates recommended for the individual compounds when used alone were used (in this example, 0.6 g of NBPT per kg of urea and, respectively, 3.6 g of DMPSA per kg of urea), giving 16 trials (0%-0% to 100%-100%), in addition to the unfertilized control sample.
Urea fertilizer was delivered in an amount of 200 kg nitrogen per ha, corresponding to 0.51 mg of urea nitrogen per g of soil. The soil used was Filder loam with a pH of 6.8. The incubation trials were carried out at 20° C. For the investigation of trace gases, air supply was passed first through a gas sample, then through a 250 ml capacity glass bottle containing 150 g of soil, subsequently through a gas sample for the outgoing air and through an acid trap, in order, for example, to determine amounts of ammonia. For the measurement of nitrogen, about 20 g of soil were incubated; for the measurement of urea, about 5 g of soil.

## Cc1cn(C(CC(=O)O)C(=O)O)nc1C (stereo not drawn) [DMPSA, 2-(N-3,4-dimethylpyrazole)succinic acid]
Nitrification [1]; 33% of DMPSA, throughout the trial
  inhibition of nitrification (ammonium results): sufficient to inhibit nitrification throughout the trial
Nitrification [1]; listed as UI 0 NI 1
  percentage recovery in the form of ammonium, % of applied urea (13 mg N): 69%
Nitrification [1]; listed as UI 0 NI ⅓
  percentage recovery in the form of ammonium, % of applied urea (13 mg N): 62%
Nitrification [1]; listed as UI 0 NI ⅔
  percentage recovery in the form of ammonium, % of applied urea (13 mg N): 63%
Nitrification [2]; 33% of the DMPSA, entire period
  inhibition of nitrification (nitrate results): sufficient to inhibit nitrification during the entire period
Nitrification [2]; 5 days after application, listed as UI 0 NI 1
  Nitrate, % of the urea applied (13 mg N): 6%
Nitrification [2]; 5 days after application, listed as UI 0 NI ⅓
  Nitrate, % of the urea applied (13 mg N): 4%
Nitrification [2]; 5 days after application, listed as UI 0 NI ⅔
  Nitrate, % of the urea applied (13 mg N): 5%
Nitrification [2]; 28 days after application, listed as UI 0 NI 1
  Nitrate, % of the urea applied (13 mg N): 14%
Nitrification [2]; 28 days after application, listed as UI 0 NI ⅓
  Nitrate, % of the urea applied (13 mg N): 20%
Nitrification [2]; 28 days after application, listed as UI 0 NI ⅔
  Nitrate, % of the urea applied (13 mg N): 17%
Nitrification [3]; 0 days after appl., 150 g soil
  N2O—N cumulative: 0 μg N2O—N Bottle^1
Nitrification [3]; 33% of DMPSA
  emissions of laughing gas: drastically reduces the emissions of laughing gas
Nitrification [3]; 0.5 days after appl.
  N2O—N cumulative: 0 μg N2O—N Bottle^1
Nitrification [3]; 1 day after appl., listed as UI-0_NI-1
  N2O—N cumulative: 3 μg N2O—N Bottle^1
Nitrification [3]; 1 day after appl., listed as UI-0_NI-2
  N2O—N cumulative: 1 μg N2O—N Bottle^1
Nitrification [3]; 1 day after appl., listed as UI-0_NI-3
  N2O—N cumulative: 1 μg N2O—N Bottle^1
Nitrification [3]; 2 days after appl., listed as UI-0_NI-1
  N2O—N cumulative: 3 μg N2O—N Bottle^1
Nitrification [3]; 2 days after appl., listed as UI-0_NI-2
  N2O—N cumulative: 1 μg N2O—N Bottle^1
Nitrification [3]; 2 days after appl., listed as UI-0_NI-3
  N2O—N cumulative: 1 μg N2O—N Bottle^1
Nitrification [3]; 3 days after appl., listed as UI-0_NI-1
  N2O—N cumulative: 4 μg N2O—N Bottle^1
Nitrification [3]; 3 days after appl., listed as UI-0_NI-2
  N2O—N cumulative: 2 μg N2O—N Bottle^1
Nitrification [3]; 3 days after appl., listed as UI-0_NI-3
  N2O—N cumulative: 1 μg N2O—N Bottle^1
Nitrification [3]; 4 days after appl., listed as UI-0_NI-1
  N2O—N cumulative: 4 μg N2O—N Bottle^1
Nitrification [3]; 4 days after appl., listed as UI-0_NI-2
  N2O—N cumulative: 2 μg N2O—N Bottle^1
Nitrification [3]; 4 days after appl., listed as UI-0_NI-3
  N2O—N cumulative: 2 μg N2O—N Bottle^1
Nitrification [3]; 5 days after appl., listed as UI-0_NI-1
  N2O—N cumulative: 4 μg N2O—N Bottle^1
Nitrification [3]; 5 days after appl., listed as UI-0_NI-2
  N2O—N cumulative: 2 μg N2O—N Bottle^1
Nitrification [3]; 5 days after appl., listed as UI-0_NI-3
  N2O—N cumulative: 2 μg N2O—N Bottle^1
Nitrification [3]; 6 days after appl., listed as UI-0_NI-1
  N2O—N cumulative: 5 μg N2O—N Bottle^1
Nitrification [3]; 6 days after appl., listed as UI-0_NI-2
  N2O—N cumulative: 2 μg N2O—N Bottle^1
Nitrification [3]; 6 days after appl., listed as UI-0_NI-3
  N2O—N cumulative: 2 μg N2O—N Bottle^1
Nitrification [3]; 8 days after appl., listed as UI-0_NI-1
  N2O—N cumulative: 6 μg N2O—N Bottle^1
Nitrification [3]; 8 days after appl., listed as UI-0_NI-2
  N2O—N cumulative: 3 μg N2O—N Bottle^1
Nitrification [3]; 8 days after appl., listed as UI-0_NI-3
  N2O—N cumulative: 3 μg N2O—N Bottle^1
Nitrification [3]; 10 days after appl., listed as UI-0_NI-1
  N2O—N cumulative: 5 μg N2O—N Bottle^1
Nitrification [3]; 10 days after appl., listed as UI-0_NI-2
  N2O—N cumulative: 3 μg N2O—N Bottle^1
Nitrification [3]; 10 days after appl., listed as UI-0_NI-3
  N2O—N cumulative: 2 μg N2O—N Bottle^1
Nitrification [3]; 12 days after appl., listed as UI-0_NI-1
  N2O—N cumulative: 5 μg N2O—N Bottle^1
Nitrification [3]; 12 days after appl., listed as UI-0_NI-2
  N2O—N cumulative: 3 μg N2O—N Bottle^1
Nitrification [3]; 12 days after appl., listed as UI-0_NI-3
  N2O—N cumulative: 3 μg N2O—N Bottle^1
Nitrification [3]; 14 days after appl., listed as UI-0_NI-1
  N2O—N cumulative: 6 μg N2O—N Bottle^1
Nitrification [3]; 14 days after appl., listed as UI-0_NI-2
  N2O—N cumulative: 3 μg N2O—N Bottle^1
Nitrification [3]; 14 days after appl., listed as UI-0_NI-3
  N2O—N cumulative: 3 μg N2O—N Bottle^1
Nitrification [3]; 17 days after appl., listed as UI-0_NI-1
  N2O—N cumulative: 6 μg N2O—N Bottle^1
Nitrification [3]; 17 days after appl., listed as UI-0_NI-2
  N2O—N cumulative: 3 μg N2O—N Bottle^1
Nitrification [3]; 17 days after appl., listed as UI-0_NI-3
  N2O—N cumulative: 3 μg N2O—N Bottle^1
Nitrification [3]; 18 days after appl., listed as UI-0_NI-1
  N2O—N cumulative: 5 μg N2O—N Bottle^1
Nitrification [3]; 18 days after appl., listed as UI-0_NI-2
  N2O—N cumulative: 1 μg N2O—N Bottle^1
Nitrification [3]; 18 days after appl., listed as UI-0_NI-3
  N2O—N cumulative: 2 μg N2O—N Bottle^1
Nitrification [3]; 20 days after appl., listed as UI-0_NI-1
  N2O—N cumulative: 5 μg N2O—N Bottle^1
Nitrification [3]; 20 days after appl., listed as UI-0_NI-2
  N2O—N cumulative: 2 μg N2O—N Bottle^1
Nitrification [3]; 20 days after appl., listed as UI-0_NI-3
  N2O—N cumulative: 2 μg N2O—N Bottle^1
Nitrification [3]; 22 days after appl., listed as UI-0_NI-1
  N2O—N cumulative: 7 μg N2O—N Bottle^1
Nitrification [3]; 22 days after appl., listed as UI-0_NI-2
  N2O—N cumulative: 3 μg N2O—N Bottle^1
Nitrification [3]; 22 days after appl., listed as UI-0_NI-3
  N2O—N cumulative: 2 μg N2O—N Bottle^1
Nitrification [3]; 24 days after appl., listed as UI-0_NI-1
  N2O—N cumulative: 7 μg N2O—N Bottle^1
Nitrification [3]; 24 days after appl., listed as UI-0_NI-2
  N2O—N cumulative: 4 μg N2O—N Bottle^1
Nitrification [3]; 24 days after appl., listed as UI-0_NI-3
  N2O—N cumulative: 3 μg N2O—N Bottle^1
Nitrification [3]; 28 days after appl., listed as UI-0_NI-1
  N2O—N cumulative: 8 μg N2O—N Bottle^1
Nitrification [3]; 28 days after appl., listed as UI-0_NI-2
  N2O—N cumulative: 6 μg N2O—N Bottle^1
Nitrification [3]; 28 days after appl., listed as UI-0_NI-3
  N2O—N cumulative: 4 μg N2O—N Bottle^1
Nitrification [3]; listed as UI-0_NI-1
  N2O—N cumulative, % of appl.: 0.01 % of appl.
Nitrification [3]; listed as UI-0_NI-2
  N2O—N cumulative, % of appl.: 0.01 % of appl.
Nitrification [3]; listed as UI-0_NI-3
  N2O—N cumulative, % of appl.: 0.00 % of appl.
urease; 4 days after application, listed as UI 0 NI 1
  Ammonia emission, % of the urea applied (77 mg N): 0.7%
urease; 4 days after application, listed as UI 0 NI ⅓
  Ammonia emission, % of the urea applied (77 mg N): 0.6%
urease; 4 days after application, listed as UI 0 NI ⅔
  Ammonia emission, % of the urea applied (77 mg N): 0.9%
urease; 9 days after application, listed as UI 0 NI 1
  Ammonia emission, % of the urea applied (77 mg N): 2.2%
urease; 9 days after application, listed as UI 0 NI ⅓
  Ammonia emission, % of the urea applied (77 mg N): 3.7%
urease; 9 days after application, listed as UI 0 NI ⅔
  Ammonia emission, % of the urea applied (77 mg N): 2.4%
urease; addition of DMPSA
  effect of addition on ammonia emissions: causes the ammonia emissions to rise
